Experimental data: patent publication US20220354807A1, “USE OF VALERIC ACID DERIVATIVE IN TREATMENT OF DOWN'S SYNDROME” (XIAMEN UNIVERSITY, priority 2019, published 2022)

How the values were obtained:
[1] = Body weight after 21 days of administration; assay type: in vivo; settings: WT and Ts65Dn mice, 50 mg/(kg body weight/day) i.p.
Description: All of the used mice were 3-month-old male mice administered continuously for 21 days, and then weighed.
The mice were administered continuously for 21 days and then weighed.

Open-field test = assay type: in vivo, mice; settings: 50 mg/(kg body weight/day) i.p., 21 days, open field 10 minutes
Description: After 21 days of continuous administration, 3-month-old male mice were subjected to the behavioral open-field test. (A) Average movement speed of mice in the open field. (B) Total movement distance of mice in the open field. (C) Total time for the mice moving in the center of the open field.
After continuous administration for 21 days, the animal behavior test was performed, in which the open-field test is a behavioral paradigm for evaluating the exercise ability and anxiety of experimental animals. In the open-field test, mice were placed in the center of the open field box (40 cm (L)×40 cm (W)×40 cm (H)), and Smart Video Tracking Software (Panlab, Harvard Apparatus) was used for data acquisition and analysis. Mice were allowed to explore freely in the open field for 10 minutes, and the Mean speed, Total distance and Time in center of mice were recorded.

Down's model mice Ts65Dn [2] = experiment: Morris water maze test, Ts65Dn; assay type: in vivo; settings: 50 mg/(kg body weight/day) i.p., 21 days
From the text: (§1) After 21 days of continuous administration, 3-month-old male mice were subjected to the Morris water maze test. (A) The latency for the mice to reach the platform during the 6-day water maze hidden platform training. (B) The average speed of swimming for the mice in the water maze of the platform test on day 7. (C) The latency for the mice to reach the area where the platform is located for the first time in the platform test on day 7. (D) The number of times for which the mice shuttled in the area where the platform is located in the platform test on day 7. (E) The swimming trajectory for the mice in the platform test on day 7. […] The ns represents no significant difference, i.e., p>0.05, ** represents p<0.01, *** represents p<0.001, **** represents p<0.0001.
(§2) After continuous administration for 21 days, learning and memory related animal behavior test Morris water maze test was performed. Smart Video Tracking Software (Panlab, Harvard Apparatus) was used for data acquisition and analysis. The Morris water maze is a circular water tank with a diameter of 90 cm, a height of 35 cm, and a water depth of 30 cm. The water temperature was maintained at 22° C. Different markers were placed in the visual field of mice (pool wall), and four water entry points (E, S, W, N) were marked on the pool wall so that the maze was divided into four quadrants. A platform with a diameter of 6 cm was installed in the ES quadrant, so that the water surface was 1 cm higher than the platform. Mice were trained twice a day and put into the water from E, S, W and N entry points facing the wall of the pool, respectively. The movement trajectory of the mice was captured by a camera, and the time from entering the water to climbing up the platform was recorded, that is, Escape latency. The system set a test time of 60 seconds, and the system automatically shut down after the mice climbed on the platform and stay for 10 seconds. […] The positioning navigation experiment last for 6 days, and on day 7, the platform was removed. Mice were placed on the opposite side of the platform to the wall of the pool, and the space exploration experiment was carried out. The number of times of crossing in the original platform area (Target crossing) and the Latency of 1st entrance to target were recorded.

Down's model mice Dp16 [3] = experiment: Morris water maze test, Dp16; assay type: in vivo; settings: 30 mg/(kg body weight/day) intragastric, 21 days
From the text: as §1, with “p>0.05, * represents p<0.05,” for “p>0.05,”, “p<0.001.” for “p<0.001, **** represents p<0.0001.”
as §2, with “The” for “The positioning navigation experiment last for 6 days, and on day 7, the platform was removed. Mice were placed on the opposite side of the platform to the wall of the pool, and the space exploration experiment was carried out. The”, “recorded. […]” for “recorded.”

Down's model mice Ts65Dn [4] = experiment: LTP recording in brain slices (Schaffer collateral pathway CA3 to CA1); assay type: in vivo; settings: 50 mg/(kg body weight/day) i.p., 21 days
Description: After 21 days of continuous administration, electrophysiological studies on brain slice were performed. After anesthesia, the mice were incubated in an ice-cooled artificial cerebrospinal fluid (ACSF) with oxygen. After slicing, the brain slices were incubated in ACSF saturated with oxygen at 32° C. for 1 H. The recording electrode was placed in the radiation layer of CA1 area of Schaffer collateral pathway, and the stimulating electrode was placed in CA3 area. Stimulation intensity was 30% of the maximum value of fEPSP. After the stable baseline of fEPSP was recorded for 20 mins, LTP was induced by high frequency stimulation (HFS) (2 strings of stimulation, each of which contained 100 stimulation pulses, and was separated by 30 seconds) and recorded for 60 mins.

Down's model mice Ts65Dn [5] = experiment: Synapse number by transmission electron microscopy; assay type: in vivo; settings: 50 mg/(kg body weight/day) i.p., 21 days
From the text: (A) A representative image of a transmission electron micrograph. Arrows indicate synaptic structures, and the scale is 1 m. (B) Statistics result of the number of synapses. (C) Statistics result of the number of presynaptic vesicles. (D) statistical result of the length of postsynaptic density (PSD). (E) Statistical results of the area of postsynaptic density (PSD). Data represents the mean±standard error (SEM) and is statistically analyzed using One-way ANOVA, with 4 mice in each group, and 38-42 fields of view are statistically analyzed respectively. The ns represents no significant difference, i.e., p>0.05, * represents p<0.05.
[…] The pieces were fixed with pre-cooled, fresh 2.5% glutaraldehyde fixative at 4° C. for more than 4 hours. At the end of fixation, the pieces were washed with PBS for 15 min for three times, then dehydrated, sectioned and prepared, and finally the images are collected by transmission electron microscopy.

Down's model mice Ts65Dn [6] = experiment: Iba1 immunofluorescence of hippocampus (microgliosis), Ts65Dn; assay type: in vivo; settings: 50 mg/(kg body weight/day) i.p., 21 days
From the text: (§3) (A) A representative map of immunofluorescence labeled microglia marker Iba1 in the DG region of mice hippocampus, and the scale is 75 m. (B) Statistical results of Iba1 positive cells in mice hippocampus. Data represents the mean±standard error (SEM) and is statistically analyzed using One-way ANOVA, with 4 mice in each group. ** represents p<0.01 and *** represents p<0.001.
(§4) The microglia marker Iba1 and nuclear dye DAPI were respectively labeled by immunofluorescence staining, and then the images were collected by laser confocal fluorescence microscopy.

Down's model mice Dp16 [7] = experiment: Iba1 immunofluorescence of hippocampus (microgliosis), Dp16; assay type: in vivo; settings: 30 mg/(kg body weight/day) intragastric, 21 days
From the text: as §3, with “100” for “75”, “8” for “4”, “****” for “**”, “p<0.0001.” for “p<0.01 and *** represents p<0.001.”
as §4

Down's model mice Dp16 [8] = experiment: Iba1/CD68 immunofluorescence of hippocampus (microglial phagocytic function), Dp16; assay type: in vivo; settings: 30 mg/(kg body weight/day) intragastric, 21 days
From the text: (A) A representative map of immunofluorescence labeled microglia marker Iba1 and lysosomal phagocytosis marker CD68 in the region of mice hippocampus, and the scale is 50 m. (B) The statistical results of the proportion of Iba1-positive and CD68-positive cells in the total Iba1-positive cells in the mice hippocampus. Data represents the mean±standard error (SEM) and is statistically analyzed using One-way ANOVA, with 8 mice in each group. The ns represents no significant difference, i.e., p>0.05, *** represents p<0.001, **** represents p<0.0001.
The microglia marker Iba1 and lysosomal phagocytosis markers CD68 were respectively labeled by immunofluorescence staining, and then the images were collected by laser confocal fluorescence microscopy.

[9] = test system: primary microglia of Dp16 mice; experiment: Phagocytosis of myelin debris by primary microglia; assay type: cell-based; settings: 0.6 mM, myelin debris added at 45 hours, staining at 48 hours
From the text: (§5) (A) Representative images of immunofluorescence labeled microglia marker Iba1, nuclear dye DAPI and myelin sheath debris (pHrodo is pre-labeled on myelin sheath), and the scale is 20 m. (B) Statistics of fluorescence intensity of myelin sheath debris in each Iba1-positive cell. Data represents the mean±standard error (SEM) and is statistically analyzed using One-way ANOVA. The ns represents no significant difference, i.e., p>0.05, ** represents p<0.01, *** represents p<0.001, **** represents p<0.0001.
(§6) Newborn wild-type (WT) mice and Dp16 Down's model mice were placed on ice for 5 min, immersed in pre-cooled 75% alcohol for 10 s, decapitated and stripped of the skull, and the whole brain was removed and placed in pre-cooled HBSS. Under a stereoscope, the vascular membrane of brain tissue was stripped and cut into pieces with tweezers, repeatedly blown and beaten evenly with a 5 ml pipette tip, resuspended in precooled HBSS, and screened with a 100-mesh cell sieve to remove cell debris. […] The cells were resuspended and counted. […] Myelin debris (1.2 μg/L) were added at 45 hours, and immunofluorescence staining was performed at 48 hours to label microglia marker Iba1, nuclear dye DAPI and myelin debris (pHrodo was labeled on the myelin sheath in advance), respectively, and then images were collected by laser confocal fluorescence microscopy.

[10] = test system: primary microglia of Dp16 mice; experiment: Phagocytosis of fluorescent spheres by primary microglia; assay type: cell-based; settings: 0.6 mM, fluorescent spheres added at 45th hour, staining at 48th hour
From the text: as §5, with “fluorescent spheres,” for “myelin sheath debris (pHrodo is pre-labeled on myelin sheath),”, “10” for “20”, “fluorescent spheres” for “myelin sheath debris”, “p<0.01,” for “p<0.01, *** represents p<0.001,”
as §6, with “Fluorescent spheres (10000×, Fluoresbrite® microsphere)” for “Myelin debris (1.2 μg/L)”, “the 45th hour,” for “45 hours,”, “the 48th hour” for “48 hours”, “fluorescent spheres GFP,” for “myelin debris (pHrodo was labeled on the myelin sheath in advance),”

[11] = 50 mg/(kg body weight/day) i.p., 21 days, plasma
[12] = cited from earlier work
Alzheimer's disease mice = settings: by inhibiting the production of β-amyloid protein in the brain; cited from earlier work

CCCC(CCC)C(=O)O [VPA, sodium valproate]
body weight of mice [1]: does not affect | anxiety-related behaviors (Time in center) (Open-field test): do not show anxiety-related behaviors | locomotor ability (Mean speed, Total distance) (Open-field test): no significant effects | Latency of 1st entrance to target, day 7 (Down's model mice Ts65Dn [2]): reduces | latency to search the platform (Escape latency), first 6 days of training (Down's model mice Ts65Dn [2]): significantly reduce | number of times the mouse shuttled the area where the platform was located (Target crossing), day 7 (Down's model mice Ts65Dn [2]): significantly increases | spatial learning and memory deficits (Down's model mice Ts65Dn [2]): significantly reverse | Latency of 1st entrance to target, day 7 (Down's model mice Dp16 [3]): reduces | number of times the mouse shuttled the area where the platform was located, day 7 (Down's model mice Dp16 [3]): significantly increases | spatial learning and memory deficits (Down's model mice Dp16 [3]): significantly reverse | Long term potentiation (LTP) of Schaffer collateral pathway from hippocampal CA3 to CA1 (Down's model mice Ts65Dn [4]): significantly enhances | number of synapses in the hippocampal neurons (Down's model mice Ts65Dn [5]): significantly increases | number of microglia in the hippocampus (Iba1 positive cells) (Down's model mice Ts65Dn [6]): significantly reduces | number of microglia in the hippocampus (Iba1 positive cells) (Down's model mice Dp16 [7]): significantly reduces | phagocytic function of hippocampal microglial cells (Iba1-positive and CD68-positive cells) (Down's model mice Dp16 [8]): significantly enhances | phagocytic function of myelin debris by primary microglia [9]: significantly enhances | phagocytic function of fluorescent spheres by primary microglia [10]: significantly enhances | toxic effects on mice (blood biochemical analysis) [11]: no significant toxic effects | binding to plasma proteins in blood ([12]; blood): mostly combined with plasma proteins | absorption by oral administration ([12]; oral administration): absorbed rapidly and completely | cognitive function of Alzheimer's disease mice (Alzheimer's disease mice): reverse the cognitive function
